# Publication PMC9203742 (Nature Communications, 2022)
# “And” between values parts separate entries of the source, which are not always exact repeats. Equal values may be shown once. Starred links: 1 amine or outer side, 2 acyl side, 3 side chain; linkers in the order of their positions; H or OH if unused. Positions of bridges follow the written chain, without caps; N, C: chain ends. Non-standard residues stand in square brackets, D forms with d. Residues, ends and D or L forms follow the SMILES beside them. X1 = CC(=O)NC(C(=O)OC(C(C)C)C(N[*:1])C(=O)[*:2])C(O)C(C)C; PhLac = O=C(O)[CH](O)Cc1ccccc1; NMeT = CN[CH](C(=O)O)[CH](C)O; NMeA = CN[CH](C)C(=O)O; NMeDha = C=C(NC)C(=O)O
# What was measured:
# mGlu1(N264H) mutant = target: T1, mGlu1(N264H) mutant (Rattus norvegicus, UniProt P23385, N264H); assay: Fura-2 Ca2+ imaging in HEK293 cells expressing mGlu1(N264H); assay type: cell-based; settings: for Receptor activation (Ca2+ response, Δratio): 3 μM Pd(bpy) derivative; for Ca2+ response to Pd complex, individual cells #1-#20 (Fig.4e): single-cell values; for Effect of pre-treated inhibitor on 10 µM Pd(bpy)-induced Ca2+ responses: 10 µM LY367385, 1 µM FITM, 10 µM YM254890 or 1 µM U73122
# T1 construct: expressed in transfected cells; host or cells: HEK293
# T1 sequence (P23385 19-1199 N264H): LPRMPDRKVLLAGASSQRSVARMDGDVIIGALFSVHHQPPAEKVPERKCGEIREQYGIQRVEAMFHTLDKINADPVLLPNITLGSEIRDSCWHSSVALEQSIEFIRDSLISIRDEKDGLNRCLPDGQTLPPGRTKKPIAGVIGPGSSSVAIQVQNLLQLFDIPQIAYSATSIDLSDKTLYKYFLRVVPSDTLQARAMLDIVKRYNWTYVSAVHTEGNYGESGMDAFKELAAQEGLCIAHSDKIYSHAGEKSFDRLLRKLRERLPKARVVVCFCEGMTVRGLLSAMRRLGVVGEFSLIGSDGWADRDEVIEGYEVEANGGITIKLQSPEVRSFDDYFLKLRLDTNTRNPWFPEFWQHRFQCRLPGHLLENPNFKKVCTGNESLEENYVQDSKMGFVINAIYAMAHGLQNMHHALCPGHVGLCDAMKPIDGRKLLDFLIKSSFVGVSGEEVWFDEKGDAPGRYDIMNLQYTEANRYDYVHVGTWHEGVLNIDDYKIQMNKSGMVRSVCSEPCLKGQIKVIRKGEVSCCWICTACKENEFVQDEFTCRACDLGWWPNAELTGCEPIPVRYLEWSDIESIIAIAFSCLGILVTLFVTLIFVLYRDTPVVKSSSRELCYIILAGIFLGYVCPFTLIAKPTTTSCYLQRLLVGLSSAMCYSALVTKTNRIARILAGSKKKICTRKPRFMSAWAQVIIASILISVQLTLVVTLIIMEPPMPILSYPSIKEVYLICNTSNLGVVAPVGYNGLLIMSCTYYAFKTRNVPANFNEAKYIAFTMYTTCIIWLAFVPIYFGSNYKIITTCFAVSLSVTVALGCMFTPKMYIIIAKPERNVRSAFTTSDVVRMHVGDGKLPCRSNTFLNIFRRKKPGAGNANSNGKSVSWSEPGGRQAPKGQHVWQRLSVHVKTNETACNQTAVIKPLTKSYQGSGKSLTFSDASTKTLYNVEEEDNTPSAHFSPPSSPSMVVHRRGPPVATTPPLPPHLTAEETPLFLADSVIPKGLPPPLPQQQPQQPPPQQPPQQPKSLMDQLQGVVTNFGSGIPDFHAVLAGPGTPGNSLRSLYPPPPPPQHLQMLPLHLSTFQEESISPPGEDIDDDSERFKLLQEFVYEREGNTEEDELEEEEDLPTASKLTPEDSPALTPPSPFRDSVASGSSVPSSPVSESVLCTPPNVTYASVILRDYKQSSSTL
# primary cortical neurons = assay: Fura-2 Ca2+ imaging (abnormal Ca2+ response) in cultured cortical neurons; settings: co-treated 30 µM LY367385, 1 µM FITM or 10 µM U73122
# mGlu1 K61H/N264H mutant = target: T2, mGlu1 K61H/N264H mutant (Rattus norvegicus, UniProt P23385, K61H/N264H); assay: Fura-2 Ca2+ imaging in HEK293 cells expressing mGlu1 K61H/N264H; assay type: cell-based; settings: 10 μM metal ion or metal complex
# T2 construct: expressed in transfected cells; host or cells: HEK293
# T2 sequence (P23385 19-1199 K61H/N264H): as the sequence (P23385 19-1199 N264H) above, with K43H counted along it
# mGlu1 P58H/N264H mutant = target: T3, mGlu1 P58H/N264H mutant (Rattus norvegicus, UniProt P23385, N264H/P58H); assay: Fura-2 Ca2+ imaging in HEK293 cells expressing mGlu1 P58H/N264H; assay type: cell-based; settings: 10 μM metal ion or metal complex
# T3 construct: expressed in transfected cells; host or cells: HEK293
# T3 sequence (P23385 19-1199 P58H/N264H): as the sequence (P23385 19-1199 N264H) above, with P40H counted along it
# mGlu1 P57H/N264H mutant = target: T4, mGlu1 P57H/N264H mutant (Rattus norvegicus, UniProt P23385, N264H/P57H); assay: Fura-2 Ca2+ imaging in HEK293 cells expressing mGlu1 P57H/N264H; assay type: cell-based; settings: 10 μM metal ion or metal complex
# T4 construct: expressed in transfected cells; host or cells: HEK293
# T4 sequence (P23385 19-1199 P57H/N264H): as the sequence (P23385 19-1199 N264H) above, with P39H counted along it
# mGlu1 E60H/N264H mutant = target: T5, mGlu1 E60H/N264H mutant (Rattus norvegicus, UniProt P23385, E60H/N264H); assay: Fura-2 Ca2+ imaging in HEK293 cells expressing mGlu1 E60H/N264H; assay type: cell-based; settings: 10 μM metal ion or metal complex
# T5 construct: expressed in transfected cells; host or cells: HEK293
# T5 sequence (P23385 19-1199 E60H/N264H): as the sequence (P23385 19-1199 N264H) above, with E42H counted along it
# mGlu1 A59H/N264H mutant = target: T6, mGlu1 A59H/N264H mutant (Rattus norvegicus, UniProt P23385, A59H/N264H); assay: Fura-2 Ca2+ imaging in HEK293 cells expressing mGlu1 A59H/N264H; assay type: cell-based; settings: 10 μM metal ion or metal complex
# T6 construct: expressed in transfected cells; host or cells: HEK293
# T6 sequence (P23385 19-1199 A59H/N264H): as the sequence (P23385 19-1199 N264H) above, with A41H counted along it
compound,measurement,setting,value
OCCOCCOCc1ccnc(-c2cc(COCCOCCO)ccn2)c1.[Cl][Pd][Cl] [Pd(EG-bpy)],"Receptor activation (Ca2+ response, Δratio)",mGlu1(N264H) mutant,weakened responses
same,"Ca2+ response to Pd complex, individual cells #1-#20 (Fig.4e)",mGlu1(N264H) mutant,-0.02498 and -0.009 and -0.01094 and -0.001385 and -0.02155 and -0.01075 and -0.019 and 0.05131 and 0.02474 and 0.01748 and 0.01646 and -0.03188 and 0.7968 and -0.03567 and 0.2621
OCc1ccnc(-c2cc(CO)ccn2)c1.[Cl][Pd][Cl] [Pd(OH-bpy)],"Ca2+ response, concentration dependence (Fig.4f)",mGlu1(N264H) mutant; 0.01 µM Pd complex,-0.02066
same,"Ca2+ response, concentration dependence (Fig.4f)",mGlu1(N264H) mutant; 0.03 µM Pd complex,0.003658
same,"Ca2+ response, concentration dependence (Fig.4f)",mGlu1(N264H) mutant; 0.1 µM Pd complex,0.0176
same,"Ca2+ response, concentration dependence (Fig.4f)",mGlu1(N264H) mutant; 0.3 µM Pd complex,0.1704
same,"Ca2+ response, concentration dependence (Fig.4f)",mGlu1(N264H) mutant; 1 µM Pd complex,0.2068
same,"Ca2+ response, concentration dependence (Fig.4f)",mGlu1(N264H) mutant; 3 µM Pd complex,0.4989
same,"Receptor activation (Ca2+ response, Δratio)",mGlu1(N264H) mutant,successfully activated
same,"Ca2+ response, concentration dependence (Fig.4f)",mGlu1(N264H) mutant; 10 µM Pd complex,0.5148
same,"Ca2+ response, concentration dependence (Fig.4f)",mGlu1(N264H) mutant; 30 µM Pd complex,0.5694
same,EC50,"mGlu1(N264H) mutant; HEK293 cells, Fura-2, read-out: EC50, Ca2+ response (Δratio)",1100 nM
same,"Ca2+ response to Pd complex, individual cells #1-#20 (Fig.4e)",mGlu1(N264H) mutant,0.09363 and -0.01751 and 0.927 and 0.3494 and 0.8377 and 0.7197 and 0.003631 and 0.04434 and -0.01218 and -0.01678 and 1.414 and 0.5875 and -0.01008 and 0.646 and 0.8168 and 0.6391 and 0.4133 and 1.082 and 0.03592 and 1.1834
O=S(=O)([O-])CCCOCc1ccnc(-c2cc(COCCCS(=O)(=O)[O-])ccn2)c1.[Cl][Pd][Cl].[Na+].[Na+] [Pd(di-sulfo-bpy)],"Receptor activation (Ca2+ response, Δratio)",mGlu1(N264H) mutant,failed to activate
same,"Ca2+ response to Pd complex, individual cells #1-#20 (Fig.4e)",mGlu1(N264H) mutant,0.01072 and 0.008046 and 0.01006 and 0.04502 and 0.003731 and 0.0195 and 0.007615 and 0.1169 and -0.002485 and 0.009585 and 0.3142 and 0.02231 and 0.005731 and 0.02578 and 0.01671
"COc1ccc2c(c1)CC[C@@H]1[C@@H]2CC[C@]2(C)[C@@H](NCCCCCCN3C(=O)C=CC3=O)CC[C@@H]12 [U73122, reference compound]",Effect of inhibitor on 30 µM Pd(bpy)-induced [Ca2+]i elevation,primary cortical neurons,suppressed by neither
same,Effect of pre-treated inhibitor on 10 µM Pd(bpy)-induced Ca2+ responses,mGlu1(N264H) mutant,suppressed
"C=C1C(=O)NC(C)C(=O)N(C)C(C)C(=O)NC(C(OC(=O)C(NC(C)=O)C(O)C(C)C)C(C)C)C(=O)N(C)C(C(C)OC)C(=O)OC(C)C(NC(C)=O)C(=O)OC(Cc2ccccc2)C(=O)N1C (centres unmarked) [YM-254890, reference compound] (Ac-T[PhLac][NMeDha]A[NMeA][X1][NMeT](Me); ester 1-C; configuration not given here)",Effect of pre-treated inhibitor on 10 µM Pd(bpy)-induced Ca2+ responses,mGlu1(N264H) mutant,suppressed
"[Zn+2] [Zn^2+, reference compound]","Receptor activation ([Ca2+]i change, Δratio)",mGlu1 K61H/N264H mutant,failed to activate
same,"Receptor activation ([Ca2+]i change, Δratio)",mGlu1 P58H/N264H mutant,failed to activate
same,"Receptor activation ([Ca2+]i change, Δratio)",mGlu1 P57H/N264H mutant,failed to activate
same,"Receptor activation ([Ca2+]i change, Δratio)",mGlu1 E60H/N264H mutant,failed to activate
same,"Receptor activation ([Ca2+]i change, Δratio)",mGlu1 A59H/N264H mutant,failed to activate
